Series [1] concerns ZIKV (Paraiba_01). Nature of the series: microbe, parasite or virus in culture. Type of series: cell-based, Zika virus. The conditions noted are these: Vero cells; for EC50: Zika virus, pretreatment 24 h, 48 h incubation, plaque assay.
In a further series the test system is ZIKV (MR-766). Nature of the series: microbe, parasite or virus in culture. The conditions noted are these: Vero cells; for EC50: Zika virus, pretreatment 24 h, 48 h incubation, plaque assay. Type of series: cell-based, Zika virus.
The next series has as its system TBEV (Hypr). Nature of the series: microbe, parasite or virus in culture. Type of series: cell-based, tick-borne encephalitis virus. The conditions noted are these: for EC50: Tick-borne encephalitis virus, Vero.
The next series relates to WNV (Eg101). Kind of series: microbe, parasite or virus in culture. The conditions noted are these: Vero cells; for EC50: pretreatment 24 h, 48 h incubation, plaque assay. In kind it is cell-based, West Nile virus.
For a further series, the system named is WNV (13-104). Kind of series: microbe, parasite or virus in culture. Type of series: cell-based, West Nile virus. As to conditions: Vero cells; for EC50: West Nile virus, pretreatment 24 h, 48 h incubation, plaque assay.
Series [2] is described as follows: Cytotoxicity assay (Cell Counting Kit-8). Type of series: cell-based. As to conditions: African green monkey; Vero cells, 72 h treatment, 0-100 µM. On the procedure: (§1) For detailed cytotoxicity studies, Vero, HBCA, and UKF-NB-4 cells were seeded onto 96-well plates at a density of 10,000 cells per well and incubated for 24 h at 37 °C before being used in the experiment to form a confluent monolayer. After the incubation, tested compounds were added to the cells at concentrations of 0, 3.125, 6.25, 12.5, 25, 50, 75, and 100 µM, and treated under the same regime as during antiviral testing; i.e., pretreatment for 24 h with culture medium containing appropriate drug concentrations, then the medium was exchanged with fresh compound-containing medium. […] The 50% cytotoxic concentration (CC50) values, representing the concentration of compound that reduced cell viability by 50%, were calculated using GraphPad Prism (version 7.04, GraphPad Software, San Diego, CA, USA) as a nonlinear regression (inhibitor vs. normalized response, variable slope).
A general note: Tetrazolium assays rely on reduction of a dye to a coloured formazan, in cell work by metabolically active cells.

The nature of series [3]: Cytotoxicity assay (Cell Counting Kit-8). As to conditions: human, 72 h treatment, 0-100 µM. Type of series: cell-based, Human. On the procedure:
as §1

The next series deals with HBCA cells. Nature of the series: Cytotoxicity assay (Cell Counting Kit-8). Type of series: cell-based, Human. On the procedure:
as §1

The subject of another series is UKF-NB-4 cells. Kind of series: Cytotoxicity assay (Cell Counting Kit-8). Type of series: cell-based, Human. On the procedure: as §1
Series [4] relates to ZIKV (strain MR-766). Kind of series: Anti-ZIKV activity in a simultaneous treatment assay, plaque assay, Vero cells. In kind it is cell-based, Zika virus. As to conditions: 50 µM, 48 h.
The subject of series [5] is ZIKV (strain MR-766). Nature of the series: Anti-ZIKV activity in a post-treatment assay, plaque assay, Vero cells. As to conditions: 50 µM, 48 h. In kind it is cell-based, Zika virus.
In series [6] the test system is ZIKV (Paraiba_01). Nature of the series: Anti-ZIKV activity in human neural cells, pretreatment assay, UKF-NB-4 cells. In kind it is cell-based, Zika virus. The conditions noted are these: 48 h.
Series [7] deals with ZIKV (Paraiba_01). Kind of series: Anti-ZIKV activity in human neural cells, pretreatment assay, HBCA cells. Type of series: cell-based, Zika virus. As to conditions: 48 h.
Series [8] has as its system flaviviral surface E antigen (all VBFs tested). Kind of series: Immunofluorescence staining of viral antigen in infected Vero cells. Type of series: cell-based. As to conditions: 48 h p.i., 0, 40, 50 µM dasabuvir or efavirenz, 0, 75, 100 µM tipranavir. On the procedure: The results obtained from antiviral assays were confirmed using a cell-based flavivirus immunostaining assay with a mouse monoclonal antibody that specifically recognizes the flavivirus group surface antigen, as described previously. Briefly, Vero cells seeded onto 96-well plates were treated with the test compound (0, 40, or 50 μM dasabuvir or efavirenz; 0, 75, or 100 μM tipranavir) and infected with the individual viruses at a multiplicity of infection of 0.1. After incubation at 37 °C for 48 h, the cell monolayers were fixed with cold acetone-methanol (1:1), blocked with 10% fetal bovine serum, and incubated with the flavivirus antibody (1:250; Sigma-Aldrich, Prague, Czech Republic). After washing, the cells were labeled with an anti-mouse goat secondary antibody conjugated with fluorescein isothiocyanate (FITC; 1:500) and counterstained with DAPI (4′,6-diamidino-2-phenylindole; 1 μg/mL) to allow visualization of the cell nuclei. The fluorescence signal was recorded with an Olympus IX71 epifluorescence microscope and processed by ImageJ software.

The next series deals with HCV genotype 1a replicon. More on the design: method as in PMID 25534735. The conditions noted are these: HCV subgenomic replicon; cited from earlier work.
A further series concerns HCV genotype 1b replicon. More on the design: method as in PMID 25534735. As to conditions: HCV subgenomic replicon; cited from earlier work. (In antiviral work, replicon cells carry a viral genome segment that copies itself.)
Series [9] has as its system ZIKV (strain MR-766). Kind of series: Inhibition of ZIKV-mediated cytopathic effect in a simultaneous treatment assay, Vero cells. The conditions noted are these: 50 µM, 48 h. On the technique in general: Protection from cytopathic effect is a common read-out in antiviral testing.
The next series deals with HIV. Further details: method as in PMID 21041916, PMID 18158073. The conditions noted are these: H9 cells; read-out: EC90 (anti-HIV activity); cited from earlier work.

Molecules are shown by their SMILES.

Consider `COc1c(-c2ccc3cc(NS(C)(=O)=O)ccc3c2)cc(-n2ccc(=O)[nH]c2=O)cc1C(C)(C)C` [Dasabuvir, dasabuvir], for which the “Selectivity Index (SI) (CC50/EC50)” value came out at 6.29 in the series with ZIKV (Paraiba_01) [1]; 6.54 with ZIKV (MR-766); 6.67 in the series on TBEV (Hypr); 5.60 in the series with WNV (Eg101); 6.48 in the series on WNV (13-104). In addition, the EC50 (usually the concentration needed to bring the measured effect to its halfway point) in the series with ZIKV (Paraiba_01) [1] stood at 16.1 µM; in the series with ZIKV (MR-766), 15.5 µM; with TBEV (Hypr), 15.2 µM; in the series with WNV (Eg101), 18.1 µM; with WNV (Eg101) (West Nile virus, Vero) it was 18.8 µM; in the series with WNV (13-104), 15.7 µM. The EC50 is 0.0077 µM with HCV genotype 1a replicon and 0.0018 µM with HCV genotype 1b replicon. Besides, the values for the CC50 at 72 h in [2], in series [3] (HBCA cells) and in series [3] (UKF-NB-4 cells) were 102 µM, 26 µM and 21.3 µM, respectively. In addition, the “highest non-toxic (>90% viability of the treated cells) concentration” value in the series on HBCA cells is 12.5 µM; in the series on UKF-NB-4 cells, 6.25 µM. The “effect on ZIKV titer in the culture” value in the series on ZIKV (strain MR-766) [4] is listed as “reduced ZIKV titer”. The “anti-ZIKV effect, drug applied 2 h post-infection” value (“anti-ZIKV effect” for short) in the series with ZIKV (strain MR-766) [5] is given as “even stronger compared to 7-deaza-2′-C-methyladenosine”. In addition, the “virus titer reduction in comparison with mock-treated control cells” value with ZIKV (Paraiba_01) [6] (highest concentration of the drug) is recorded as “approximately 1 log10 pfu/mL”. In addition, the “effect on ZIKV replication in the cell culture” value in the series with ZIKV (Paraiba_01) [7] (12.5 µM) is reported as “completely suppressed ZIKV replication”. Moreover, in series [8], the “surface E antigen expression by all VBFs tested” value (shortened to “surface E antigen expression”) is reported as “dose-dependent inhibition”. Moreover, the “viability of the infected cells compared to uninfected controls (inhibition of ZIKV-mediated CPE)” value with ZIKV (strain MR-766) [9] is recorded as more than 90%.
Take `O=C1Nc2ccc(Cl)cc2[C@@](C#CC2CC2)(C(F)(F)F)O1` [Efavirenz, efavirenz]: the “Selectivity Index (SI) (CC50/EC50)” value turned out to be 2.85 with ZIKV (Paraiba_01) [1]; 2.41 in the series with ZIKV (MR-766); 4.63 in the series with TBEV (Hypr); 3.35 with WNV (Eg101); 4.50 in the series on WNV (13-104). Further, the half-maximal effective concentration (EC50) in the series with ZIKV (Paraiba_01) [1] was 25.8 µM; in the series on ZIKV (MR-766), 30.4 µM; with TBEV (Hypr), 15.9 µM; with WNV (Eg101) (West Nile virus, Vero) it was 21.9 µM; with WNV (13-104) it was 16.3 µM. Moreover, the results for the 50% cytotoxic concentration (CC50) at 72 h in [2], in series [3] (HBCA cells) and in series [3] (UKF-NB-4 cells) were 73.6 µM, 16.7 µM and 31.9 µM, respectively. Moreover, the “highest non-toxic (>90% viability of the treated cells) concentration” value in the series on HBCA cells amounted to 3.125 µM; in the series with UKF-NB-4 cells, 12.5 µM. Also, the “effect on ZIKV titer in the culture” value with ZIKV (strain MR-766) [4] is “reduced ZIKV titer”. For the same compound, in the series with ZIKV (strain MR-766) [5], the “anti-ZIKV effect” value was “antiviral effect”. For the same compound, the “antiviral effect against ZIKV” value with ZIKV (Paraiba_01) [6] (any concentration tested) and with ZIKV (Paraiba_01) [7] (any concentration tested) was “No antiviral effect” throughout. Also, the “surface E antigen expression” value in series [8] is reported as “dose-dependent inhibition”. Further, in the series on ZIKV (strain MR-766) [9], the “viability of the infected cells compared to uninfected controls (inhibition of ZIKV-mediated CPE)” value was more than 90%.
For `CCC[C@@]1(CCc2ccccc2)CC(O)=C([C@H](CC)c2cccc(NS(=O)(=O)c3ccc(C(F)(F)F)cn3)c2)C(=O)O1` [Tipranavir, tipranavir], the EC50 in the series with ZIKV (Paraiba_01) [1] was determined as 29.9 µM; in the series on ZIKV (MR-766), 30.3 µM; in the series on TBEV (Hypr), 35.5 µM; in the series with WNV (Eg101) (West Nile virus, Vero) it was 32.7 µM; in the series with WNV (13-104), 24.2 µM. The “Selectivity Index (SI) (CC50/EC50)” value in the series on ZIKV (MR-766) was 4.45; in the series on TBEV (Hypr), 3.79; in the series with WNV (Eg101) it was 4.12; with WNV (13-104) it was 5.58. For the same compound, the figures for the CC50 at 72 h in series [2], in series [3] (HBCA cells) and in series [3] (UKF-NB-4 cells) were more than 100 µM, 34 µM and 89.2 µM, respectively. Also, the “highest non-toxic (>90% viability of the treated cells) concentration” value amounted to 12.5 µM in the series on HBCA cells and 50 µM with UKF-NB-4 cells. Further, in the series with ZIKV (strain MR-766) [4], the “effect on ZIKV titer in the culture” value is given as “reduced ZIKV titer”. Moreover, in the series with ZIKV (strain MR-766) [5], the “anti-ZIKV effect” value is given as “even stronger compared to 7-deaza-2′-C-methyladenosine”. Moreover, the “antiviral effect against ZIKV (virus titer reduction)” value in the series on ZIKV (Paraiba_01) [6] (50 µM) is given as “approx. 10^3 fold”. Moreover, the “reduction of ZIKV replication in the HBCA culture” value with ZIKV (Paraiba_01) [7] (12.5 µM) is on record as “approx. 10^3 fold”. In addition, in series [8], the “surface E antigen expression” value is recorded as “dose-dependent inhibition”. The concentration for an effect of 90% (EC90) (usually the point of the concentration-response curve where the effect stands at 90%) in the series on HIV was 0.1 µM. The “viability of the infected cells compared to uninfected controls (inhibition of ZIKV-mediated CPE)” value in the series on ZIKV (strain MR-766) [9] is listed as more than 90%.
Take `C[C@@H]1CCO[C@H]2Cn3cc(C(=O)NCc4ccc(F)cc4F)c(=O)c(O)c3C(=O)N12` [dolutegravir]: the “viability of the infected cells compared to uninfected controls (inhibition of ZIKV-mediated CPE)” value in the series with ZIKV (strain MR-766) [9] is more than 90%.

The values above are taken from paper PMC7232190, “FDA-Approved Drugs Efavirenz, Tipranavir, and Dasabuvir Inhibit Replication of Multiple Flaviviruses in Vero Cells” (Microorganisms, 2020).
